Measurements reported in the Kinase Knowledgebase extract (Sharma et al. 2016).
pIC50: −log10 of the molar value.

Assays:
EGFR (murine) [1] = target: EGFR (murine) (UniProt P00533); conditions: her 14
EGFR (murine) [2] = target: EGFR (murine) (UniProt P00533); conditions: for pIC50: her 14
EGFR = EGFR (UniProt P00533)
EGFR, sequence (P00533 whole entry, looked up): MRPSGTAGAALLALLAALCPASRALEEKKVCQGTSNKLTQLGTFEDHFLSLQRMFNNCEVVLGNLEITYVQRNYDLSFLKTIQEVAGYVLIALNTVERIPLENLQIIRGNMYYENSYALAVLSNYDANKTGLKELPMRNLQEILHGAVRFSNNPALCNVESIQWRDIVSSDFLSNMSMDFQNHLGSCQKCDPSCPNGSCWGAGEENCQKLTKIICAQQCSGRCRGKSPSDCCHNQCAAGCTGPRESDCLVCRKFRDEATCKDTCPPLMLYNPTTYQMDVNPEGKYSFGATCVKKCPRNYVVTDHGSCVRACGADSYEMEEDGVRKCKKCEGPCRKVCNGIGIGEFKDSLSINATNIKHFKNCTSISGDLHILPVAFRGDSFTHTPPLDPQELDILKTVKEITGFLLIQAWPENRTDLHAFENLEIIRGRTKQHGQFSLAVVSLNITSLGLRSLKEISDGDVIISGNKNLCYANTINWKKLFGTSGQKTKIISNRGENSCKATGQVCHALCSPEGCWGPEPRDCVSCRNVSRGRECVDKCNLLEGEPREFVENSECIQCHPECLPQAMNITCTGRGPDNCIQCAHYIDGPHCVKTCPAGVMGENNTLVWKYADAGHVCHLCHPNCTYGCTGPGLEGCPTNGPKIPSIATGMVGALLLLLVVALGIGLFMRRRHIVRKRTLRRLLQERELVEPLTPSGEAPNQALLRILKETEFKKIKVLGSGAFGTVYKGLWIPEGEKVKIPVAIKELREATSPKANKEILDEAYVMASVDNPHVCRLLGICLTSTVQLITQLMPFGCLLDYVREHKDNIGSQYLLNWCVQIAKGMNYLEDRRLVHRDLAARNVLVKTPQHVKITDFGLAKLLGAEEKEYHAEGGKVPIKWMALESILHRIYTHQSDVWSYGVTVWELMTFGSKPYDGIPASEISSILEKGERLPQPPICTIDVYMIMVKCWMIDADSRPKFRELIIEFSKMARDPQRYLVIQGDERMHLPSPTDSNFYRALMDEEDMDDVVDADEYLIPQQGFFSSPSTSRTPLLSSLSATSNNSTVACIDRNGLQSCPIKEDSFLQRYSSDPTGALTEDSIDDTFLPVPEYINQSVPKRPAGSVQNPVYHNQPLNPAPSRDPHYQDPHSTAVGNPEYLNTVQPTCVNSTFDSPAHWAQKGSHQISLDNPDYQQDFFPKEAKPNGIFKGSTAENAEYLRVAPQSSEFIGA

EGFR (murine), sequence (P00533 whole entry, looked up): as above

Row | SMILES | pIC50 (EGFR (murine) [1]) | pIC50 (EGFR (murine) [2]) | inhibition (EGFR (murine) [2]; her 14, dose or concentration not given here) | pIC50 (EGFR)
1 | N#CC(C#N)=Cc1ccc2[nH]ccc2c1 | < 4.00 | – | – | –
2 | CC(NC(=O)/C(C#N)=C/c1ccc(O)c(O)c1)c1ccccc1 (stereo not given) | 5.46 | 5.00 | 0.88% | –
3 | Cc1ccc(C(=O)/C(C#N)=C/c2ccc(O)c(O)c2)cc1 | 5.15 | 4.00 | – | –
4 | N#CC(C#N)=C1C(=O)Nc2cc(O)c(O)cc21 | < 4.80 | – | – | –
5 | N#CC(C#N)=C1C(=O)Nc2ccc([N+](=O)[O-])cc21 | 4.70 | – | – | –
6 | N#C/C(=C/c1ccc(O)c(O)c1)C(=O)NC1CCCCC1 | 4.82 | – | – | –
7 | N#C/C(=C\c1ccc(O)c(O)c1)C(=O)N1CCc2ccccc21 | 4.60 | 4.00 | – | –
8 | N#C/C(=C\c1ccc(O)c(O)c1)C(=O)c1ccc(F)cc1 | 4.70 | 4.10 | – | –
9 | N#CC(C#N)=C1CCc2cc(O)c(O)cc21 | 4.52 | < 3.82 | – | –
10 | Cc1cccc(C)c1NC(=O)/C(C#N)=C/c1ccc(O)c(O)c1 | – | < 4.70 | – | –
11 | N#C/C(=C\c1ccc(O)c(O)c1)C(=O)NCCCc1ccccc1 | 5.60 | 4.60 | – | –
12 | N#C/C(=C\c1ccc(O)c(O)c1)C(=O)NCCCCc1ccccc1 | 5.52 | 5.00 | – | –
13 | N#C/C(=C\c1ccc(O)c(O)c1)C(=O)NC1CCCCC1 | – | 4.30 | – | –
14 | COc1cc2c(cc1O)NC(=O)C2=C(C#N)C#N | ≤ 3.92 | – | – | –
15 | N#C/C(=C\c1ccc(O)c(O)c1)C(N)=O | 4.82 | 4.22 | – | 5.00
16 | N#CC(C#N)=Cc1cccc(O)c1 | – | – | – | 3.43
17 | N#C/C(=C\c1ccc(O)c(O)c1)C(=O)c1ccccc1 | 4.82 | 3.92 | – | –
18 | N#C/C(=C\c1ccc(O)c(O)c1)C(=O)c1ccc([N+](=O)[O-])cc1 | 4.70 | > 4.70 | – | –
19 | N#C/C(=C\c1ccc(O)c(O)c1)C(=O)Nc1ccccc1Cl | 4.46 | 4.92 | – | –
20 | N#CC(C#N)=Cc1cc[n+]([O-])cc1 | – | – | – | 2.89
21 | N#C/C(=C/c1ccc(O)c(O)c1)C(=O)NCc1ccccc1 | 5.46 | – | – | –
22 | COc1cc(C=C(C#N)C#N)ccc1O | – | – | – | 3.70
